# Reference: ChEMBL document CHEMBL1201862, “PubChem BioAssay data set” (2004)
# Activity calls are given as the source filed them.
# How the values were obtained:
# Type in all cases: functional
# [1] = target: Serine/threonine-protein kinase D2 (Homo sapiens, UniProt Q9BZL6);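 further: measured against PRKD2 as one member of a kinome-wide kinase profiling panel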
# [2] = target: Tyrosine-protein kinase SYK (Homo sapiens, UniProt P43405)
# [3] = target: Mitogen-activated protein kinase kinase kinase 20 (Homo sapiens, UniProt Q9NYL2)
# [4] = target: Proto-oncogene tyrosine-protein kinase Src (Homo sapiens, UniProt P12931);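 further: SRC entry within a kinome-wide kinase profiling panel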
# [5] = target: Glycogen synthase kinase-3 alpha (Homo sapiens, UniProt P49840);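 further: GSK3A result taken from a broad kinome-wide kinase panel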
# [6] = target: Cyclin-dependent kinase 5 (Homo sapiens, UniProt Q00535);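 further: CDK5 measured as one member of a kinase profiling panel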
# [7] = target: Serine/threonine-protein kinase Nek4 (Homo sapiens, UniProt P51957)
# [8] = target: Protein kinase C iota type (Homo sapiens, UniProt P41743);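 further: measured within a kinome-wide kinase panel, PRKCI as panel member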
# [9] = target: Tyrosine-protein kinase Fer (Homo sapiens, UniProt P16591);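 further: FER tested as one member of a kinome panel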
# [10] = target: Cyclin-dependent kinase 1 (Homo sapiens, UniProt P06493);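 further: Kinome-wide panel profiling, with the target listed as panel member CDC2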
# [11] = target: 3-phosphoinositide-dependent protein kinase 1 (Homo sapiens, UniProt O15530);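 further: value comes from the Navigating the Kinome panel, PDPK1 member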
# [12] = target: Glycogen synthase kinase-3 beta (Homo sapiens, UniProt P49841);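 further: value comes from a broad kinome profiling panel, with GSK3B as the panel member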
# [13] = target: BDNF/NT-3 growth factors receptor (Homo sapiens, UniProt Q16620);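 further: NTRK2 measured as one member of a broad kinome-wide kinase profiling panel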
# [14] = target: Serine/threonine-protein kinase BRSK1 (Homo sapiens, UniProt Q8TDC3);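 further: measured within a kinome-wide kinase panel, with the target listed as KIAA1811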
# [15] = target: Tyrosine-protein kinase FRK (Homo sapiens, UniProt P42685);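 further: FRK tested as one member of a kinome panel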
# [16] = target: T1, Replicative DNA helicase DnaB (Mycobacterium tuberculosis, UniProt P9WMR3); assay: DnaB intein splicing inhibitors, dose response, biochemical, cell-free fluorescence (AID 449749)
# T1 sequence (P9WMR3 whole entry): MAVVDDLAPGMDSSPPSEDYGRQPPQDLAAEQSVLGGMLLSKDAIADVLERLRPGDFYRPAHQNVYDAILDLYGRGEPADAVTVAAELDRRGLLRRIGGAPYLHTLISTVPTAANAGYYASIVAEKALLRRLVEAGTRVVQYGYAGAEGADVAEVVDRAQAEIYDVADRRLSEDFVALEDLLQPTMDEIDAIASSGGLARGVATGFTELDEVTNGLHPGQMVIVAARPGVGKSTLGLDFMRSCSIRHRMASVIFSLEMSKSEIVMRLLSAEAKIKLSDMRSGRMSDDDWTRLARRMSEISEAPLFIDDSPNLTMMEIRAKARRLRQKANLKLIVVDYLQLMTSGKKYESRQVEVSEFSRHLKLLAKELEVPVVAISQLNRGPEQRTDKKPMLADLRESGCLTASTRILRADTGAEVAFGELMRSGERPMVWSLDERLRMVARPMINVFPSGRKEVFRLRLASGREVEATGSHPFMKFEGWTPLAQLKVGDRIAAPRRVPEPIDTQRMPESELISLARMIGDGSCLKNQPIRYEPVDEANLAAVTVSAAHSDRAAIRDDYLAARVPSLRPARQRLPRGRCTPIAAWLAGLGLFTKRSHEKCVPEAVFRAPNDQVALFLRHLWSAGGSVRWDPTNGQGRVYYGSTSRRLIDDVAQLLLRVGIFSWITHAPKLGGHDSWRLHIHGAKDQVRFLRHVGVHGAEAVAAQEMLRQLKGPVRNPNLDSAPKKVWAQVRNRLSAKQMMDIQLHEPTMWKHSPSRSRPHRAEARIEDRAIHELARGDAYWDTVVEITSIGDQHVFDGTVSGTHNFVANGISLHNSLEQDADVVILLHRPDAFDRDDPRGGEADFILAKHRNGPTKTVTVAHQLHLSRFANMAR
# [17] = target: T2, Apoptotic protease-activating factor 1 (Homo sapiens, UniProt O14727)
# T2 sequence (O14727 whole entry): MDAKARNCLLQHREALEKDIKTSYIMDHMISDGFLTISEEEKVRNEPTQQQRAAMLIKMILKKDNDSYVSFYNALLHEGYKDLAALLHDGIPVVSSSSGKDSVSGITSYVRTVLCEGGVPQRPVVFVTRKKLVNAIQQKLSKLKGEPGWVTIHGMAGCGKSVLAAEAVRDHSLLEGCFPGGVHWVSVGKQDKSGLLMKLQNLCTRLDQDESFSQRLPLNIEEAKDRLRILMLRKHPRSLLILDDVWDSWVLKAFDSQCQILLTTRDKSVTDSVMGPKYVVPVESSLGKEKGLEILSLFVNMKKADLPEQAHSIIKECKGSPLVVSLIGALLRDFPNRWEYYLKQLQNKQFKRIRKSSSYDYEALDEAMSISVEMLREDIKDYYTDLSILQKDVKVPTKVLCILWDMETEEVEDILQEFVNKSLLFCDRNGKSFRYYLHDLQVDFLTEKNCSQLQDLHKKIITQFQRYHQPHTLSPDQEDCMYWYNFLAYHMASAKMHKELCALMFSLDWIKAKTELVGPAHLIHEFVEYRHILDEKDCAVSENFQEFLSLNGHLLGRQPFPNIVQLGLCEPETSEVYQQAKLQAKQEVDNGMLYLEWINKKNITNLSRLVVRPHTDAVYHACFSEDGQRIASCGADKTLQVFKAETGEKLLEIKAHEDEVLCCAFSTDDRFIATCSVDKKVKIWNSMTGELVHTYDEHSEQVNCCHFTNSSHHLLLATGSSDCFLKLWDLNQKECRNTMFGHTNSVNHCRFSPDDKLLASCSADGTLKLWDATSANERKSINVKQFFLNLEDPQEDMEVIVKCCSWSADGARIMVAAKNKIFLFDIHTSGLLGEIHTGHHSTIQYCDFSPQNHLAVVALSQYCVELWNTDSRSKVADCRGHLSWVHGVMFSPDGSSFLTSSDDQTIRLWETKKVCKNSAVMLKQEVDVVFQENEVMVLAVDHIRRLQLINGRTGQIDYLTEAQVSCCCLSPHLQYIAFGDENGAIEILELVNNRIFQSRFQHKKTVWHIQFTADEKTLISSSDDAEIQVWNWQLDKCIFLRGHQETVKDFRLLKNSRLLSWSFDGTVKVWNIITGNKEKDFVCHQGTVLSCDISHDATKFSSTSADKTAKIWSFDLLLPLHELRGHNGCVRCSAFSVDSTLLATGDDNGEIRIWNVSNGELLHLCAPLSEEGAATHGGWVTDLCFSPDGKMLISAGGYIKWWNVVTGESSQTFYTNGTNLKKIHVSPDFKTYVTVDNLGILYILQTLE
# Serine/threonine-protein kinase D2, sequence (Q9BZL6 whole entry): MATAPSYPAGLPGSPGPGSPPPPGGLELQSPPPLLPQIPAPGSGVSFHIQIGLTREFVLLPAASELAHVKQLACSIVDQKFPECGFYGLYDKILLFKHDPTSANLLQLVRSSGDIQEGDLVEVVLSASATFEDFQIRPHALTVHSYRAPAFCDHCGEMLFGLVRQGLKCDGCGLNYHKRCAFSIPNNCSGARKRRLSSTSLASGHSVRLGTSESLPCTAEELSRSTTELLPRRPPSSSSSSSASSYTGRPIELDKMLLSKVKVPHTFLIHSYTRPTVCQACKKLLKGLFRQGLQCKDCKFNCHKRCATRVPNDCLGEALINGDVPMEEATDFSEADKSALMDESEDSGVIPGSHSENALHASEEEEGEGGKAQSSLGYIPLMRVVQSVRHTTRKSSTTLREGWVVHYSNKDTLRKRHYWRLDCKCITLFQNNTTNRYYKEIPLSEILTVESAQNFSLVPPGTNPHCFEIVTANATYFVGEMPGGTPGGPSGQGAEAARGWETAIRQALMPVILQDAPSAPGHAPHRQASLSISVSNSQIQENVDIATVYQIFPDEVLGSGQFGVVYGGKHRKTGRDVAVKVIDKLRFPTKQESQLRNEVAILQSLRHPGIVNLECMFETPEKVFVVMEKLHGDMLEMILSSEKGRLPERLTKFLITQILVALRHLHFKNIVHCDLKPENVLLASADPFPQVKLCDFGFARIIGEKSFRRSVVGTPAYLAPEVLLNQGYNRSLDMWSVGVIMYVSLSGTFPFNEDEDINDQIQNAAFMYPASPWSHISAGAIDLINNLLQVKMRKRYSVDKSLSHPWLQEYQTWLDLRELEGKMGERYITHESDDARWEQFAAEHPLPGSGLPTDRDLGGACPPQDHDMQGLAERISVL
# Serine/threonine-protein kinase Nek4, sequence (P51957 whole entry): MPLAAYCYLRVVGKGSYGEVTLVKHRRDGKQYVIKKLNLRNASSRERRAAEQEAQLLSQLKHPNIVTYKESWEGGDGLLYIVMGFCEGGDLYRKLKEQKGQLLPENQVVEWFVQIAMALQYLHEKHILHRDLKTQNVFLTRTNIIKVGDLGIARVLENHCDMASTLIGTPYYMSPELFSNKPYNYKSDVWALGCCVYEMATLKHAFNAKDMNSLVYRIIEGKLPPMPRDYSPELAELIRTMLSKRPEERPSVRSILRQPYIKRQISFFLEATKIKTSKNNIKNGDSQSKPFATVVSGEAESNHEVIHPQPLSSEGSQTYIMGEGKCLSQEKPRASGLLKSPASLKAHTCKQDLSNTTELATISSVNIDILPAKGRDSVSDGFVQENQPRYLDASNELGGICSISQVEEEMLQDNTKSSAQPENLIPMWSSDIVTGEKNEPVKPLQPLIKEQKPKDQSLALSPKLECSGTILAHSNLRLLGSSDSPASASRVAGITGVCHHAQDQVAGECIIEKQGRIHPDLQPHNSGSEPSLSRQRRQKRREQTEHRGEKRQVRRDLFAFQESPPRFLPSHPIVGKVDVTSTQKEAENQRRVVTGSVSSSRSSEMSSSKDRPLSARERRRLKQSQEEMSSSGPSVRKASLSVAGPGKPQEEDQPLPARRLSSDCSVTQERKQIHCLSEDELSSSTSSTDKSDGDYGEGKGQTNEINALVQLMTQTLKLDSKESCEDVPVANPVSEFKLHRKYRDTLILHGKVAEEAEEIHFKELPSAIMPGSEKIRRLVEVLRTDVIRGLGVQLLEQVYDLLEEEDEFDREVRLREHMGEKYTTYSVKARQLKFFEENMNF
# Cyclin-dependent kinase 5, sequence (Q00535 whole entry): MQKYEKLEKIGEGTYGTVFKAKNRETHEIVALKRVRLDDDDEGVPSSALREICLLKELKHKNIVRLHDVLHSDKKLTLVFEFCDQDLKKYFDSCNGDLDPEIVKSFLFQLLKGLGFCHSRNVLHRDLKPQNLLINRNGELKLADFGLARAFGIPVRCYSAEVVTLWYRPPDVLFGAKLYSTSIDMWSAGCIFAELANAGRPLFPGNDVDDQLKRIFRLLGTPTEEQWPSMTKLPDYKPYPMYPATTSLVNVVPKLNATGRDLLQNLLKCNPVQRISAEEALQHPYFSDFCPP
# Serine/threonine-protein kinase BRSK1, sequence (Q8TDC3 whole entry): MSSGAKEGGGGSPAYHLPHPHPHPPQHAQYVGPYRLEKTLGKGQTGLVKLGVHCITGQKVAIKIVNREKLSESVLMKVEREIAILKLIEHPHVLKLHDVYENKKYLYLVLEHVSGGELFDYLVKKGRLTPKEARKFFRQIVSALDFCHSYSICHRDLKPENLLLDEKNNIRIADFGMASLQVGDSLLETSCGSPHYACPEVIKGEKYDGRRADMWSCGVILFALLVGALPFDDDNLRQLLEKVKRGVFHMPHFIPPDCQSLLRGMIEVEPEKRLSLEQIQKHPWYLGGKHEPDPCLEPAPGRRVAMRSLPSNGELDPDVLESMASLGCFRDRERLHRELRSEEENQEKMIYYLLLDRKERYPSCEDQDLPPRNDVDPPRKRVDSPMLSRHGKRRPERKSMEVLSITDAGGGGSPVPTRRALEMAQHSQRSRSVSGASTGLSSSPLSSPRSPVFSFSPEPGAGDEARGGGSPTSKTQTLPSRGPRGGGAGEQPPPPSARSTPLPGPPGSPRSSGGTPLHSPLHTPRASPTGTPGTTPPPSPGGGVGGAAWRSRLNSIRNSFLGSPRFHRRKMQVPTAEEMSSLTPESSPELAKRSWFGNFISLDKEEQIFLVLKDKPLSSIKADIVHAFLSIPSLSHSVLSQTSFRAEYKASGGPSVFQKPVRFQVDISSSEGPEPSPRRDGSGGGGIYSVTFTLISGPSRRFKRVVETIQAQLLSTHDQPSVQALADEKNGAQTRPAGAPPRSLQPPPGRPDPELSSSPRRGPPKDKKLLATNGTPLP
# BDNF/NT-3 growth factors receptor, sequence (Q16620 whole entry): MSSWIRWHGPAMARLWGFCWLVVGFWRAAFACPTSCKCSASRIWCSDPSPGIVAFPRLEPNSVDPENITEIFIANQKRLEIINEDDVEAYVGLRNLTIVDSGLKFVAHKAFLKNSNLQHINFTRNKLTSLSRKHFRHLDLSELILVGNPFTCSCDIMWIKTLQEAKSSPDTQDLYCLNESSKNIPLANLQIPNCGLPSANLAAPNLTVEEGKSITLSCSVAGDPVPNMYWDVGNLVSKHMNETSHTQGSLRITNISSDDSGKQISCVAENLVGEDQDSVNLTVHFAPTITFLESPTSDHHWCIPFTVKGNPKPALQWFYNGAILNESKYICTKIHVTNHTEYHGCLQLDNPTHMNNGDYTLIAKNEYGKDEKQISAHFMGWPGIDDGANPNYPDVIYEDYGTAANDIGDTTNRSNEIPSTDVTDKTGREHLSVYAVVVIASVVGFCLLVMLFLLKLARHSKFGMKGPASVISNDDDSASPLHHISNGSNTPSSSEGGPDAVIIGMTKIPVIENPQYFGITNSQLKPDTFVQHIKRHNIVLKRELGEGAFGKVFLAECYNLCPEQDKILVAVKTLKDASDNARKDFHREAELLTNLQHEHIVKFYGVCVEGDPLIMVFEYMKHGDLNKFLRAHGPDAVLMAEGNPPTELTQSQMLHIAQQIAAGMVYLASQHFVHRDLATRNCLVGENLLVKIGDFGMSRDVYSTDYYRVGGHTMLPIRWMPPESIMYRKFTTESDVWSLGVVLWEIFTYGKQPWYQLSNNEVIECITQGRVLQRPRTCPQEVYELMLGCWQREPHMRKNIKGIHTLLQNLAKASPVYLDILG
# Proto-oncogene tyrosine-protein kinase Src, sequence (P12931 2-536 limits assumed): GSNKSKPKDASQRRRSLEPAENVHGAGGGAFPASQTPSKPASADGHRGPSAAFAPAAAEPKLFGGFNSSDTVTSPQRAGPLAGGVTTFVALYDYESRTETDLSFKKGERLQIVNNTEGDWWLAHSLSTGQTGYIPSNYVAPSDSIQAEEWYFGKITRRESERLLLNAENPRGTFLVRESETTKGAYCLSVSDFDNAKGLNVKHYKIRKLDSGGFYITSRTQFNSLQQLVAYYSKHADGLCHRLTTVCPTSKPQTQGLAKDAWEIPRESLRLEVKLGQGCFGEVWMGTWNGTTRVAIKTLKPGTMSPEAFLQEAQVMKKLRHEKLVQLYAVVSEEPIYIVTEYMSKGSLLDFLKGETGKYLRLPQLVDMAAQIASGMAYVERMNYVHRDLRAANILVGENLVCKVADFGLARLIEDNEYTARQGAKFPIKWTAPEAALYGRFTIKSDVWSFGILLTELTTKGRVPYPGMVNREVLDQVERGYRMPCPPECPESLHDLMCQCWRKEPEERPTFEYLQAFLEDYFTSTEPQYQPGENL
# Cyclin-dependent kinase 1, sequence (P06493 whole entry): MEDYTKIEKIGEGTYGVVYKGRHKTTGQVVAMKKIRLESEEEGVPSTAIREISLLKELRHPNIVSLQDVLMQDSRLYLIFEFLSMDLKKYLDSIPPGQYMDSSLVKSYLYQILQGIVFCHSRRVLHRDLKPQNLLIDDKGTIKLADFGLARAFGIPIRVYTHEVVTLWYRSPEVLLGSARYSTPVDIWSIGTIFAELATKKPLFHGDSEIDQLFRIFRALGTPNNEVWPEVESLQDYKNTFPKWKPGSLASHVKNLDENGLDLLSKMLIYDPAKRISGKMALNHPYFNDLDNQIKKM
# Tyrosine-protein kinase FRK, sequence (P42685 whole entry): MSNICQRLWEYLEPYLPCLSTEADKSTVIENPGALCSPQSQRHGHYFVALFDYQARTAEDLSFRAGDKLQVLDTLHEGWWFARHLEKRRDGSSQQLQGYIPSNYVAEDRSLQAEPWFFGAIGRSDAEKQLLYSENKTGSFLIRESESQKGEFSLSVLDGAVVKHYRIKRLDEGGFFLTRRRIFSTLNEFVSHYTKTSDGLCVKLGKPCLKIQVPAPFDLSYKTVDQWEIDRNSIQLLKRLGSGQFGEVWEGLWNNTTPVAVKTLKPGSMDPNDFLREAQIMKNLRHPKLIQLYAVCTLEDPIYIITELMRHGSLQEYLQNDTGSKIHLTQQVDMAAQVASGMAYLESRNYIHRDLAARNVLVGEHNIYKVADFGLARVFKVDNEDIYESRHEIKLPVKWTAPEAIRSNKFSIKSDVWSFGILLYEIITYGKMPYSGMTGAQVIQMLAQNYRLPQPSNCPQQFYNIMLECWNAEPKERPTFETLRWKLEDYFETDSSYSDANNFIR
SMILES,Ki [1],Ki [2],Ki [3],Ki [4],Ki [5],Ki [6],Ki [7],Ki [8],Ki [9],Ki [10],Ki [11],Ki [12],Ki [13],Ki [14],Ki [15],AC50 [16],IC50 [17]
Cn1cncc1C(OCc1c(-c2ccc(OC(F)(F)F)cc2)cc(C#N)c(=O)n1C)c1ccc(C#N)cc1 (configuration not stated),> 10 µM (inactive),> 1.58 µM (inactive),> 7.94 µM (inactive),> 2 µM (inactive),> 7.94 µM (inactive),> 10 µM (inactive),> 6.31 µM (inactive),> 5.01 µM (inactive),> 1.58 µM (inactive),> 7.94 µM (inactive),> 3.98 µM (inactive),2.51 µM (active),> 5.01 µM (inactive),> 10 µM (inactive),> 2.51 µM (inactive),–,–
CCc1ccc(S(=O)(=O)/N=C2\C=C(NS(=O)(=O)c3ccccc3)C(=O)c3ccccc32)cc1,–,–,–,–,–,–,–,–,–,–,–,–,–,–,–,2.55 µM (active),13.3 µM (active)
